# Source: patent US20260325533A1, “CDK INHIBITOR COMPOUNDS” (ALEKSIA THERAPEUTICS, INC., priority 2023, published 2026)
# Like-named read-outs stand apart in the source and are kept apart here.
# Experiments:
# Format in all cases: biochemical
# CDK2/CCNE1 = CDK2/CCNE1 (Homo sapiens, UniProt P24941); test: CDK2 homogeneous time-resolved fluorescence (HTRF) kinase assay; conditions: CDK2/CCNE
# Method in brief: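 3 nM CDK2/CCNE1 was preincubated with compound for 20 min at 23 °C in HEPES buffer (pH not stated), then reacted 60 min with 1 mM ATP and 50 nM ULight-4E-BP1 (Thr37/46) peptide. After EDTA stop, Eu-anti-phospho-4E-BP1 antibody (2 nM) was added for 60 min and TR-FRET read at 665 nm.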
# CDK1/CCNB1 = CDK1/CCNB1 (Homo sapiens, UniProt P06493); test: CDK1 homogeneous time-resolved fluorescence (HTRF) kinase assay; conditions: CDK1/CCNB; x = IC50 >250 nM; read-out: CDK1/CCNB IC50 (>250 nM column)
# Method in brief: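 0.5 nM CDK1/CCNB1 was preincubated 20 min at 23 °C with compound in HEPES pH-unspecified buffer (MgCl2, EGTA, DTT, Tween 20), then reacted 60 min with 1 mM ATP and 50 nM ULight-4E-BP1 (Thr37/46) peptide. EDTA-stopped reactions were detected with 2 nM Eu-anti-phospho antibody; IC50 from 11-point half-log titrations.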
# CDK4/CCND3 = CDK4/CCND3 (Homo sapiens, UniProt P11802); test: CDK4 homogeneous time-resolved fluorescence (HTRF) kinase assay; conditions: CDK4/CCND
# Method in brief: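 Compounds were preincubated with 1.5 nM CDK4/CCND3 for 20 min at 23 °C in HEPES buffer (pH not given), then reacted 60 min with 1 mM ATP and 50 nM ULight-4E-BP1 (Thr37/46) peptide. EDTA stop, Eu-anti-phospho-4E-BP1 detection; 665/615 nm ratio; IC50 from 11-point half-log titrations from 10 μM.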
# CDK6/CCND1 = CDK6/CCND1 (Homo sapiens, UniProt Q00534); test: CDK6 homogeneous time-resolved fluorescence (HTRF) kinase assay; conditions: CDK6/CCND
# Method in brief: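 1 nM enzyme, 1 mM ATP, 50 nM ULight-4E-BP1 (Thr37/46) peptide, 1% DMSO; 20 min compound preincubation, 60 min reaction, 23 °C. EDTA stop, 2 nM Eu-anti-phospho-4E-BP1 antibody 60 min. TR-FRET 665 nm (or 665/615 ratio); IC50 from 11-point half-log titration, top 10 μM.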
# [1] = x = IC50 25-250 nM, read-out: CDK2/CCNE IC50 (25-250 nM)
# [2] = x = IC50 >250 nM, read-out: CDK4/CCND IC50 (>250 nM column)
# [3] = x = IC50 >250 nM, read-out: CDK6/CCND IC50 (>250 nM column)
# [4] = x = IC50 >250 nM, read-out: CDK2/CCNE IC50 (>250 nM column)
# [5] = x = IC50 <25 nM, read-out: CDK2/CCNE IC50 (<25 nM)
# [6] = x = IC50 25-250 nM, read-out: CDK6/CCND IC50 (25-250 nM)
# Chain of CDK6/CCND1 (Q00534 whole entry): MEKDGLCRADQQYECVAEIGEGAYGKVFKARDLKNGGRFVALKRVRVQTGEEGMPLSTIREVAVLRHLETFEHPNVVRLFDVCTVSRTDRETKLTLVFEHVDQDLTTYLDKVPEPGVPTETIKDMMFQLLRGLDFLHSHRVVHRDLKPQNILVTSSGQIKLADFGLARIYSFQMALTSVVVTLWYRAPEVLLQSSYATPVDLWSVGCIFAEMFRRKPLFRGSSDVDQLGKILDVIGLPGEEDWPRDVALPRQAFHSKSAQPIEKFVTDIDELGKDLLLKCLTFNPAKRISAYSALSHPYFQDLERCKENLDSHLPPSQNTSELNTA
# Chain of CDK6/CCND1 (P24385 whole entry partner): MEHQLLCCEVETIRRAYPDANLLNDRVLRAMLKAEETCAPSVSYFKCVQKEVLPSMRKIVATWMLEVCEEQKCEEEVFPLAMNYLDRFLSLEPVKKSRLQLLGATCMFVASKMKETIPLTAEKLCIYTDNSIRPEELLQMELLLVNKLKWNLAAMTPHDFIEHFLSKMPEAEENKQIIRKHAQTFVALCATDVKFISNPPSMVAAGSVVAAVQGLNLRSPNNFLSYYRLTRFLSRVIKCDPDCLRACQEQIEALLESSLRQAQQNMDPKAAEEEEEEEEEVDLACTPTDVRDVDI
# Chain of CDK1/CCNB1 (P06493 whole entry): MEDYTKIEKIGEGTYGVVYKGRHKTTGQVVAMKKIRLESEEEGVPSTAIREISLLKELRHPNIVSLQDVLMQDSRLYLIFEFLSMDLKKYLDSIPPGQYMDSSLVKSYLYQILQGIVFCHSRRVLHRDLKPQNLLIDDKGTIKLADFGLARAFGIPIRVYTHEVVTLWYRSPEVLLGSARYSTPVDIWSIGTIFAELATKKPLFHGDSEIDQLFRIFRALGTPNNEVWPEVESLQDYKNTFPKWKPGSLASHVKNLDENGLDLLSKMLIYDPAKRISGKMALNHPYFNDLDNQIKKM
# Chain of CDK1/CCNB1 (P14635 whole entry partner): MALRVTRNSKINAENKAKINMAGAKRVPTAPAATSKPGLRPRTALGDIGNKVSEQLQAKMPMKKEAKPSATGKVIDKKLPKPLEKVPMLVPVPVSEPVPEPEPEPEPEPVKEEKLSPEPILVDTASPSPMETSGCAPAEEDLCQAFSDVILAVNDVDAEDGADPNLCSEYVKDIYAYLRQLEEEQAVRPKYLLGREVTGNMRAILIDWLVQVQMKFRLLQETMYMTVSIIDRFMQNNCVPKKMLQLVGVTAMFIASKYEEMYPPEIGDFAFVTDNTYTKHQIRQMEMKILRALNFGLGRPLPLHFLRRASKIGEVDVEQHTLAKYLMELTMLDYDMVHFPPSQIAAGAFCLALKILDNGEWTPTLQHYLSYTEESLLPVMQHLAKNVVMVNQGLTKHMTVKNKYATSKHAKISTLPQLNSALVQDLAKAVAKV
# Chain of CDK4/CCND3 (P11802 whole entry): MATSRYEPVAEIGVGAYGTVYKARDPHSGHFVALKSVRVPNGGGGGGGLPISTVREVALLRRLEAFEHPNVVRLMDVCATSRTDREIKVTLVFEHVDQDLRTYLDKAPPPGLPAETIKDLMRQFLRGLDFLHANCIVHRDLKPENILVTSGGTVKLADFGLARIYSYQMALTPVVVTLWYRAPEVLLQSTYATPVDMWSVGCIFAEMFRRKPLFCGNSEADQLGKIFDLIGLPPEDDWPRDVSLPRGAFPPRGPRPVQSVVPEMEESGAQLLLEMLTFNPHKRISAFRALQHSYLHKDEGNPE
# Chain of CDK4/CCND3 (P30281 whole entry partner): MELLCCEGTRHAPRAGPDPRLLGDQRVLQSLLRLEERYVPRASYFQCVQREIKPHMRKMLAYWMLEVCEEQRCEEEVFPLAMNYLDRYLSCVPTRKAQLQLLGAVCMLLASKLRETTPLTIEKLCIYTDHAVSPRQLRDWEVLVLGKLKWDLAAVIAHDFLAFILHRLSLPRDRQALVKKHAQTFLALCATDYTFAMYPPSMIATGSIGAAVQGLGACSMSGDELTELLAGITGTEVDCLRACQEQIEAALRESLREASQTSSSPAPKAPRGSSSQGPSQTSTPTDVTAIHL
SMILES,IC50 (CDK2/CCNE1; [1]) [µM],IC50 (CDK1/CCNB1) [µM],IC50 (CDK4/CCND3; [2]) [µM],IC50 (CDK6/CCND1; [3]) [µM],IC50 (CDK2/CCNE1; [4]) [µM],IC50 (CDK2/CCNE1; [5]) [µM],IC50 (CDK6/CCND1; [6]) [µM],"IC50 (CDK4/CCND3; x = IC50 25-250 nM, read-out: CDK4/CCND IC50 (25-250 nM)) [µM]"
"Cc1cc(C#Cc2nccc3cnc(Nc4ccc(S(C)(=O)=O)cc4)cc23)n[nH]1 [Ex 582, 5-((5-methyl-1H-pyrazol-3-yl)ethynyl)-N-(4-(methylsulfonyl)phenyl)-2,6-naphthyridin-3-amine]",0.025 to 0.25,> 0.25,> 0.25,> 0.25,,,,
"CS(=O)(=O)c1ccc(Nc2cc3c(C#Cc4cccnc4O)nccc3cn2)cc1 [Ex 583, 3-((7-((4-(methylsulfonyl)phenyl)amino)-2,6-naphthyridin-1-yl)ethynyl)pyridin-2(1H)-one]",0.025 to 0.25,> 0.25,> 0.25,> 0.25,,,,
"COc1cncc(C#Cc2nccc3cnc(Nc4ccc(S(C)(=O)=O)cc4)cc23)n1 [Ex 585, 5-((6-methoxypyrazin-2-yl)ethynyl)-N-(4-(methylsulfonyl)phenyl)-2,6-naphthyridin-3-amine]",0.025 to 0.25,> 0.25,> 0.25,> 0.25,,,,
"COc1cc(C#Cc2nccc3cnc(Nc4ccc(S(C)(=O)=O)cc4)cc23)c(F)cn1 [Ex 586, 5-((5-fluoro-2-methoxypyridin-4-yl)ethynyl)-N-(4-(methylsulfonyl)phenyl)-2,6-naphthyridin-3-amine]",0.025 to 0.25,> 0.25,> 0.25,> 0.25,,,,
"COC(=O)c1nc(C#Cc2nccc3cnc(Nc4ccc(S(C)(=O)=O)cc4)cc23)cnc1N [Ex 588, methyl 3-amino-6-((7-((4-(methylsulfonyl)phenyl)amino)-2,6-naphthyridin-1-yl)ethynyl)pyrazine-2-carboxylate]",,> 0.25,> 0.25,> 0.25,> 0.25,,,
"CS(=O)(=O)c1ccc(Nc2cc3c(C#Cc4ccc5ncoc5c4)nccc3cn2)cc1 [Ex 604, 5-(benzo[d]oxazol-6-ylethynyl)-N-(4-(methylsulfonyl)phenyl)-2,6-naphthyridin-3-amine]",0.025 to 0.25,> 0.25,> 0.25,> 0.25,,,,
"CS(=O)(=O)c1ccc(Nc2cc3c(C#CC4CCN(CC(=O)O)CC4)nccc3cn2)cc1 [Ex 609, 2-(4-((7-((4-(methylsulfonyl)phenyl)amino)-2,6-naphthyridin-1-yl)ethynyl)piperidin-1-yl)acetic acid]",,> 0.25,> 0.25,> 0.25,,< 0.025,,
"CS(=O)(=O)c1ccc(Nc2cc3c(C#Cc4cncc5[nH]ncc45)nccc3cn2)cc1 [Ex 611, 5-((1H-pyrazolo[3,4-c]pyridin-4-yl)ethynyl)-N-(4-(methylsulfonyl)phenyl)-2,6-naphthyridin-3-amine]",0.025 to 0.25,> 0.25,> 0.25,> 0.25,,,,
"CS(=O)(=O)c1ccc(Nc2cc3c(C#Cc4cc(Cl)n[nH]c4=O)nccc3cn2)cc1 [Ex 612, 6-chloro-4-((7-((4-(methylsulfonyl)phenyl)amino)-2,6-naphthyridin-1-yl)ethynyl)pyridazin-3(2H)-one]",0.025 to 0.25,> 0.25,> 0.25,> 0.25,,,,
"CS(=O)(=O)c1ccc(Nc2cc3c(C#Cc4cnc(N)nn4)nccc3cn2)cc1 [Ex 613, 5-((3-amino-1,2,4-triazin-6-yl)ethynyl)-N-(4-(methylsulfonyl)phenyl)-2,6-naphthyridin-3-amine]",0.025 to 0.25,> 0.25,> 0.25,> 0.25,,,,

# Next, values leading:
IC50 (CDK2/CCNE1; [1]) [µM],IC50 (CDK1/CCNB1) [µM],IC50 (CDK4/CCND3; [2]) [µM],IC50 (CDK6/CCND1; [3]) [µM],IC50 (CDK2/CCNE1; [4]) [µM],IC50 (CDK2/CCNE1; [5]) [µM],IC50 (CDK6/CCND1; [6]) [µM],"IC50 (CDK4/CCND3; x = IC50 25-250 nM, read-out: CDK4/CCND IC50 (25-250 nM)) [µM]",SMILES
0.025 to 0.25,> 0.25,> 0.25,> 0.25,,,,,"Cc1ccc(C#Cc2nccc3cnc(Nc4ccc(S(C)(=O)=O)cc4)cc23)c(N)n1 [Ex 581, 5-((2-amino-6-methylpyridin-3-yl)ethynyl)-N-(4-(methylsulfonyl)phenyl)-2,6-naphthyridin-3-amine]"
0.025 to 0.25,> 0.25,> 0.25,> 0.25,,,,,"CS(=O)(=O)c1ccc(Nc2cc3c(C#Cc4ccc(N)nc4)nccc3cn2)cc1 [Ex 584, 5-((6-aminopyridin-3-yl)ethynyl)-N-(4-(methylsulfonyl)phenyl)-2,6-naphthyridin-3-amine]"
,> 0.25,> 0.25,> 0.25,> 0.25,,,,"Cc1ccc(C#Cc2nccc3cnc(Nc4ccc(S(C)(=O)=O)cc4)cc23)cc1C#N [Ex 589, 2-methyl-5-((7-((4-(methylsulfonyl)phenyl)amino)-2,6-naphthyridin-1-yl)ethynyl)benzonitrile]"
0.025 to 0.25,> 0.25,> 0.25,> 0.25,,,,,"CC(C)(O)c1ccc(C#Cc2nccc3cnc(Nc4ccc(S(C)(=O)=O)cc4)cc23)cc1 [Ex 596, 2-(4-((7-((4-(methylsulfonyl)phenyl)amino)-2,6-naphthyridin-1-yl)ethynyl)phenyl)propan-2-ol]"
0.025 to 0.25,> 0.25,> 0.25,> 0.25,,,,,"Cc1cc2[nH]ncc2cc1-c1nccc2cnc(Nc3ccc(S(C)(=O)=O)cc3)cc12 [Ex 597, 5-(6-methyl-1H-indazol-5-yl)-N-(4-(methylsulfonyl)phenyl)-2,6-naphthyridin-3-amine]"
,> 0.25,> 0.25,> 0.25,,< 0.025,,,"CS(=O)(=O)c1ccc(Nc2cc3c(C#Cc4cccnc4N)nccc3cn2)cc1 [Ex 598, 5-((2-aminopyridin-3-yl)ethynyl)-N-(4-(methylsulfonyl)phenyl)-2,6-naphthyridin-3-amine]"
,> 0.25,> 0.25,,,< 0.025,0.025 to 0.25,,"CS(=O)(=O)c1ccc(Nc2cc3c(-c4ccc5c(c4)C(=O)C(=O)N5)nccc3cn2)cc1 [Ex 600, 5-(7-((4-(methylsulfonyl)phenyl)amino)-2,6-naphthyridin-1-yl)indoline-2,3-dione]"
0.025 to 0.25,> 0.25,> 0.25,> 0.25,,,,,"CS(=O)(=O)c1ccc(Nc2cc3c(-c4ccc5[nH]ncc5c4)nccc3cn2)cc1 [Ex 601, 5-(1H-indazol-5-yl)-N-(4-(methylsulfonyl)phenyl)-2,6-naphthyridin-3-amine]"
,> 0.25,> 0.25,> 0.25,,< 0.025,,,"CS(=O)(=O)c1ccc(Nc2cc3c(C#Cc4ccc(O)cc4F)nccc3cn2)cc1 [Ex 602, 3-fluoro-4-((7-((4-(methylsulfonyl)phenyl)amino)-2,6-naphthyridin-1-yl)ethynyl)phenol]"
,> 0.25,> 0.25,,,< 0.025,0.025 to 0.25,,"COC(=O)c1n[nH]c2cc(-c3nccc4cnc(Nc5ccc(S(C)(=O)=O)cc5)cc34)ccc12 [Ex 605, methyl 6-(7-((4-(methylsulfonyl)phenyl)amino)-2,6-naphthyridin-1-yl)-1H-indazole-3-carboxylate]"
0.025 to 0.25,> 0.25,> 0.25,> 0.25,,,,,"Cc1c(-c2nccc3cnc(Nc4ccc(S(C)(=O)=O)cc4)cc23)ccc2c1cnn2C(C)(C)C(N)=O [Ex 610, 2-methyl-2-(4-methyl-5-(7-((4-(methylsulfonyl)phenyl)amino)-2,6-naphthyridin-1-yl)-1H-indazol-1-yl)propanamide]"
,> 0.25,,,,< 0.025,0.025 to 0.25,0.025 to 0.25,"Cc1c(-c2nccc3cnc(Nc4ccc(S(C)(=O)=O)c(O)c4)cc23)ccc2c1cnn2CCO [Ex 616, 5-((5-(1-(2-hydroxyethyl)-4-methyl-1H-indazol-5-yl)-2,6-naphthyridin-3-yl)amino)-2-(methylsulfonyl)phenol]"
0.025 to 0.25,> 0.25,> 0.25,> 0.25,,,,,"COc1cc(Nc2cc3c(-c4ccc5c(cnn5CCO)c4C)nccc3cn2)ccc1S(C)(=O)=O [Ex 617, 2-(5-(7-((3-methoxy-4-(methylsulfonyl)phenyl)amino)-2,6-naphthyridin-1-yl)-4-methyl-1H-indazol-1-yl)ethan-1-ol]"
,> 0.25,> 0.25,> 0.25,,< 0.025,,,"CS(=O)(=O)c1ccc(Nc2cc3c(C#Cc4ccc(=O)[nH]n4)nccc3cn2)cc1 [Ex 618, 6-((7-((4-(methylsulfonyl)phenyl)amino)-2,6-naphthyridin-1-yl)ethynyl)pyridazin-3(2H)-one]"
